Data set [1] has as its system B16 cells. The experiment in a line: Melanotic melanoma test, i.p. inoculated B16 melanoma. Conditions: for Maximal Effective Dose: B16, i.p. days 1, 5 and 9; for % T/C / Long Term Survivors: B16, i.p. days 1, 5 and 9, at maximal effective dose; for Long Term Survivors: 60 days. The class given is in vivo, BDF1 mice.
Description: The animals used were BDF1 mice, all of the same sex, weighing a minimum of 18 g. and all within a 4 g. weight range. There were 6 animals per test group. […] The test compounds were administered intraperitoneally on days 1, 5 and 9 at various doses. The animals were weighed and survivors were recorded on a regular basis for 60 days. The median survival time and the ratio of survival time for treated (T)/control (C) animals were calculated. […] The criterion for efficacy is T/C×100≥125%.
Data set [2] relates to L1210 cells. Put plainly: In vivo anti-tumor activity, L1210, single i.p. injection. Details: species or system BDF1 mice. Conditions: for Maximal Effective Dose: single i.p. injection; for % T/C: single i.p. The method, then: About 24 hours after inoculation of the cells, the mice were injected intraperitoneally with varying dosages of complexes of the present invention. […] Long term survival signifies that animals were alive 60 days after inoculation with L1210 cells.

Data set [3] has as its system L1210 leukemia cells (L1210/PDD). Put plainly: In vitro cytotoxicity / cross-resistance, L1210/PDD (L1210/DDP) cells resistant to cisdiamminedichloroplatinum(II). It is filed as cell-based. Conditions: L1210/DDP, Tables VII and VIII; 5760 min. The method, then:
Four ml of cell suspension were added to culture tubes and the appropriate concentration (0.01, 0.1, 1 or 10 μg/ml final drug concentration) was added. After 96 hours the cell concentration of control and experimental cultures were calculated with the aid of a Coulter Counter® Model ZBf and the percent inhibition calculated.

Data set [4] concerns L1210/0 leukemia cells. Put plainly: In vivo anti-tumor activity, L1210 (L1210/0), multiple i.p. doses. To be noted: for Long Term Survivors: days 1, 5 and 9, at maximal effective dose, alive 60 days after tumor inoculation; for Maximal Effective Dose: i.p. on days 1, 5 and 9; for LTS: survivors/treated 50 days after treatment. Details: species or system BDF1 mice. In short, it runs like this:
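BDF1 mice given 10^6 L1210 cells i.p., then i.p. complex starting about 24 h later (day 1), as single dose or on days 1, 5 and 9; six mice per dose. Activity expressed as %T/C of survival time versus untreated controls; long-term survivors alive at 60 days.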

The test system of data set [5] is Wild type L1210 leukemic cells. Put plainly: In vitro cytotoxicity, wild type L1210 leukemic cells (L1210/0). The class given is cell-based. To be noted: for ID50: L1210, 72 hours incubation. In short, it runs like this:
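Cells at 10^5 cells/ml were exposed to drug at 0.01, 0.1, 1 or 10 μg/ml final. Cell counts were taken by Coulter counter after 72 h […]. Percent growth inhibition was calculated versus control cultures.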

The nature of data set [6]: Acute lethality, single intraperitoneal injection (Table XIII). It is filed as in vivo.
A short description of data set [7]: BUN (RUN [sic]) with the acute lethality data (Table XIII). To be noted: mean + 1 S.D. It is filed as in vivo.
The mark [8] stands for this setting: Table IX, at maximal effective dose.
Setting [9] is: Tables X and XI, i.p. on days 1, 5 and 9, at maximal effective dose.

Consider two molecules from patent US4661516A, “Diaminocyclohexane platinum complexes” (Research Corporation, priority 1984, dated 1987).

Each structure is given as a SMILES string.

As a reminder, the LD50 is the dose at which mortality reaches 50%. High values mean a less toxic substance, low ones a more toxic substance. Regarding `CN(CC(=O)[O-])CC(=O)[O-].NC1CCCCC1N.O.[Pt+2]` [Compound 28, N--Methyliminodiacetato(DACH)Pt(II).1H2 O], the “Maximal Effective Dose” value in data set [1] is 25 mg/kg; in data set [2] (Table IX), 25 mg/kg; in data set [4] (Tables X and XI), 12.5 mg/kg. In addition, the “% T/C” value is reported as 205% in data set [1]; 180% in data set [2] (setting [8]); 161% in data set [2] (12.5 mg/kg); 185% in data set [2] (25 mg/kg); “Toxic” in data set [2] (50 mg/kg); 550% in data set [4] (setting [9]). In addition, the “Long Term Survivors” value was 0/6 in data set [1]; 5/6 in data set [4] (Tables X and XI). Besides, the “ID50 L1210/DDP” value in data set [3] was found to be 1.3 µg/mL. In data set [5], this molecule returned an ID50 of 1.6 µg/mL. The molecule further returned an LD10 in data set [6] of 49 mg/kg. In data set [6], this molecule had an LD50 of 92 mg/kg. Moreover, in data set [6], the LD90 came out at 170 mg/kg. For the same molecule, the RUN in data set [7] stood at 22 ± 3 mg/100 ml.

As to `NC1CCCCC1N.O.O.O=C([O-])CN(CC(=O)[O-])c1ccccc1.[Pt+2]` [Compound 37, N--Phenyliminodiacetato(DACH)Pt(II).2H2 O], the “Maximal Effective Dose” value in data set [1] worked out at 25 mg/kg; in data set [2] (Table IX), 12.5 mg/kg; in data set [4] (Tables X and XI) it was 12.5 mg/kg. In addition, the “% T/C” value in data set [1] turned out to be 215%; in data set [2] (setting [8]), 172%; in data set [2] (12.5 mg/kg), 172%; in data set [2] (25 mg/kg), 156%; in data set [2] (50 mg/kg), 108%; in data set [4] (6.25 mg/kg i.p., days 1, 5, 9, 30 day observation period), 246%. For the same molecule, the “% T/C” value in data set [4] (12.5 mg/kg i.p., days 1, 5, 9, 30 day observation period) is recorded as 298%; in data set [4] (25 mg/kg i.p., days 1, 5, 9, 30 day observation period), 242%; in data set [4] (setting [9]), 537%. In addition, the “Long Term Survivors” value was 0/6 in data set [1]; 4/6 in data set [4] (Tables X and XI). In addition, the “ID50 L1210/DDP” value in data set [3] is 2.6 µg/mL. The LTS in data set [4] (6.25 mg/kg, days 1, 5, 9) is given as 3/6; in data set [4] (12.5 mg/kg, days 1, 5, 9), 5/6; in data set [4] (25 mg/kg, days 1, 5, 9), 1/6. This molecule also showed an ID50 in data set [5] of 1.0 µg/mL. For the same molecule, the “ID50 L1210/0” value in data set [5] (L1210/0, protocol of Example 14, Tables VII and VIII, 4320 min) amounted to 2.3 µg/mL. Further, the LD10 in data set [6] amounted to 56 mg/kg. Besides, the LD50 in data set [6] is reported as 81 mg/kg. This molecule displayed an LD90 in data set [6] of 135 mg/kg. For the same molecule, the RUN in data set [7] amounted to 18 ± 1 mg/100 ml.
